Measured values as given in US4618612A (Medosan Industrie Biochimiche Riunite S.p.A., priority 1983, dated 1986).

Assays:
[1] = tested on: rat platelet-rich plasma (ADP-induced platelet aggregation); experiment: Anti-platelet aggregation activity in vitro (Born's method), rat platelet-rich plasma, ADP-induced; format: cell-based
Description: Preparations (A), (B), (C), (D), (E) and (F) were administered "in vivo" orally and/or parenterally in 0.5% carboxymethylcellulose suspensions in physiological saline at neutral pH. When tested "in vitro", they were finely dispersed in neutral pH physiological saline.
This was studied "in vitro" following Born's method (Born G. W. R., Nature, 194, 937 (1962)) and inducing platelet aggregation with ADP.
Platelet-rich plasma was obtained by centrifugation for 10 minutes at 2,000 rpm of 9 parts rat blood to 1 part 3.13% sodium citrate solution. In performing the aggregation test, 0.2 ml of platelet rich plasm was mixed with a 0.9% NaCl solution to which the test substance was added to a final volume of 0.6 ml; the resulting mixture was incubated at 27° C. for 3 minutes. After inducement with ADP, aggregation was measured continuously with an Elvi 840 Aggregometer (Elvi Logos-Milan) to follow its course. The anti-aggregant effects were determined from the difference in the light transmission of the sample with respect to an ADP control.
Table I reports the platelet aggregation inhibition using different doses of the test compounds at a constant ADP concentration.

[2] = tested on: human platelet aggregation (PRP); experiment: Human platelet aggregation in vitro induced by ADP, adrenalin, collagen or arachidonate; format: cell-based
Description: Blood samples (20 ml) were obtained by venal puncture of the antecubital fossa using plastic syringes containing trisodium citrate as anticoagulant (final concentration 0.19% w/v). Platelet rich plasma (PRP) was harvested after slow centrifugation at 170 g for 12 min. and 0.2 ml aliquots were dispensed into plastic cuvettes and stored at room temperature throughout the experiment.
Aliquots of 0.2 ml PRP from each sample were treated with ADP, adrenalin, collagen or arachidonate, until the threshold concentrations of these aggregating agents had been reached. The threshold concentration is defined as the minimum whcih will produce irreversible aggregation. Once established, the threshold concentration was used to challenge test samples of each of the 2 test compounds or vehicle (DMSO) which had been incubated for 1 min. at 37 C. in the holding cell of the agregometer, prior to addition of the aggregating agent.
This was reported as the final concentration in the PRP after addition of 2.5-10 ul of test substance.

carragenin-induced edema = experiment: Carragenin-induced edema test (Winter); format: in vivo, rat
Description: This effect was measured with an experimental model reproducing acute inflammation in rats: the carragenin-induced edema test according to C.

in vivo [3] = conditions: mouse, mice
in vivo [4] = conditions: rat, rats
gastric mucosa = experiment: Gastric tolerance (ulcerogenic activity); format: in vivo, male Wistar rats; conditions: 4 days; for Mean Severity: scale 0-5
Description: This was studied by conducting tests of ulcerogenic activity in male Wistar rats, weighing 180 g on the average, in groups of 10 animals each. Three doses of each substance were given, and one group of animals was treated with vehicle only in a volume of 10 ml/kg bodyweight. Each dose was given orally for four consecutive days; on the fifth day, the rats were killed and autopsied. The ulcerogenic effect was assessed according to the following scale:
(1) each hemorrhage point ≥1 mm was evaluated as 1 lesion
(2) hemorrhage points smaller than 1 mm were counted as follows:
(b) from 1 to 19:2 lesions
(c) from 1 to 29:3 lesions
(2) gastric mucosa irritation: 1
(3) hemorrahge points <1 mm: 2
(4) hemorrhage points between 1 and 3 mm: 3
(5) hemorrhage points >3 mm: 4
This scale was used to calculate the following gastric damage index: [formula]

[5] = ADP 2 μmol/l, dose 1 V/ml (Table II)
[6] = ADP 5 μmol/l, dose 1 V/ml (Table II)
[7] = ADP 7.08 μmol/l, dose 1 /ml (Table I)
[8] = ADP 7.08 μmol/l, dose 5 /ml (Table I)

Compound	% Inhibition [1, 5] [%]	% Inhibition [1, 6] [%]	% Edema Inhibition (carragenin-induced edema; I.P., 10 mg/kg, 3 h)	% Edema Inhibition (carragenin-induced edema; I.P., 10 mg/kg, 6 h)	% Edema Inhibition (carragenin-induced edema; I.P., 10 mg/kg, 24 h)	% Edema Inhibition (carragenin-induced edema; I.P., 50 mg/kg, 3 h)	% Edema Inhibition (carragenin-induced edema; I.P., 50 mg/kg, 6 h)	% Edema Inhibition (carragenin-induced edema; I.P., 50 mg/kg, 24 h)	% Edema Inhibition (carragenin-induced edema; I.P., 100 mg/kg, 3 h)	% Edema Inhibition (carragenin-induced edema; I.P., 100 mg/kg, 6 h)	% Edema Inhibition (carragenin-induced edema; I.P., 100 mg/kg, 24 h)	% Edema Inhibition (carragenin-induced edema; OS, 10 mg/kg, 3 h)	% Edema Inhibition (carragenin-induced edema; OS, 10 mg/kg, 6 h)	% Edema Inhibition (carragenin-induced edema; OS, 10 mg/kg, 24 h)	% Edema Inhibition (carragenin-induced edema; OS, 50 mg/kg, 3 h)	% Edema Inhibition (carragenin-induced edema; OS, 50 mg/kg, 6 h)	% Edema Inhibition (carragenin-induced edema; OS, 50 mg/kg, 24 h)	% Edema Inhibition (carragenin-induced edema; OS, 100 mg/kg, 3 h)	% Edema Inhibition (carragenin-induced edema; OS, 100 mg/kg, 6 h)	% Edema Inhibition (carragenin-induced edema; OS, 100 mg/kg, 24 h)	other results
1-Methyl-5-p-methylbenzoylpyrrol-2-acetate of 7-(3-oxypropyl)theophylline [(C)]	36	27	38,0%	36,2%	0,0%	53,1%	50,0%	2,0%	69,5%	62,0%	10,0%	40,2%	34,0%	0,0%	59,0%	57,0%	22,2%	70,0%	66,1%	31,0%	% Inhibition [1, 7]: 22%; % Inhibition ([1]; ADP 7.08 μmol/l, dose 2,5 /ml (Table I)): 75%; % Inhibition [1, 8]: 90%; Minimum Effective Concentration (Final in PRP) ([2]; ADP, volunteer 1 (person delta for (A), person for (C))): 100 µM; Minimum Effective Concentration (Final in PRP) ([2]; ADP, volunteer 2 (donor gamma)): 100 µM; Minimum Effective Concentration (Final in PRP) ([2]; ADP, volunteer 3 (person alpha for (A), person for (C))): 250 µM; Minimum Effective Concentration (Final in PRP) ([2]; Adrenalin, volunteer 1): 100 µM; Minimum Effective Concentration (Final in PRP) ([2]; Adrenalin, volunteer 2 (donor gamma)): 0.25 µM; Minimum Effective Concentration (Final in PRP) ([2]; Adrenalin, volunteer 3): 100 µM; Minimum Effective Concentration (Final in PRP) ([2]; Arachidonate, volunteer 1): 400 µM; Minimum Effective Concentration (Final in PRP) ([2]; Arachidonate, volunteer 2 (donor gamma)): 10 µM; Minimum Effective Concentration (Final in PRP) ([2]; Arachidonate, volunteer 3): 10 µM; Minimum Effective Concentration (Final in PRP) ([2]; Collagen, volunteer 1): 350 µM; Minimum Effective Concentration (Final in PRP) ([2]; Collagen, volunteer 2 (donor gamma)): 250 µM; Minimum Effective Concentration (Final in PRP) ([2]; Collagen, volunteer 3): 100 µM
Cn1c(=O)c2c(ncn2CCCOC(=O)Cc2ccc(-n3cccc3)cc2)n(C)c1=O [(D)]	31	24	31,8%	32,7%	1,0%	50,1%	45,9%	8,6%	67,0%	65,4%	9,6%	39,0%	32,0%	0,0%	53,1%	52,0%	11,6%	66,8%	64,1%	16,7%	LD50 (in vivo [3]; ip, I.P.): 780 mg/kg; LD50 (in vivo [3]; po, OS): 1100 mg/kg; LD50 (in vivo [4]; ip, I.P.): 675 mg/kg; LD50 (in vivo [4]; po, OS): 1000 mg/kg
Cc1ccc(C(=O)c2ccc(CC(=O)NCC(=O)OCCn3cnc4c3c(=O)n(C)c(=O)n4C)n2C)cc1 [(E)]	35	29	31,8%	29,0%	0,0%	56,9%	54,8%	12,0%	80,0%	76,9%	23,0%	34,0%	33,8%	0,0%	54,4%	49,8%	10,0%	78,8%	79,0%	32,6%	LD50 (in vivo [3]; ip, I.P.): 1100 mg/kg; LD50 (in vivo [3]; po, OS): 1400 mg/kg; LD50 (in vivo [4]; ip, I.P.): 987 mg/kg; LD50 (in vivo [4]; po, OS): 1340 mg/kg
Cc1ccc(C(=O)c2ccc(CC(=O)OC(Cn3cnc4c3c(=O)n(C)c(=O)n4C)Cn3cnc4c3c(=O)n(C)c(=O)n4C)n2C)cc1 [(F)]	32	23	43,8%	34,8%	0,0%	56,0%	33,0%	0,0%	78,6%	65,6%	15,8%	23,9%	24,0%	0,0%	47,0%	46,0%	0,0%	66,0%	66,0%	12,0%	LD50 (in vivo [3]; ip, I.P.): 1240 mg/kg; LD50 (in vivo [3]; po, OS): 1680 mg/kg; LD50 (in vivo [4]; ip, I.P.): 1050 mg/kg; LD50 (in vivo [4]; po, OS): 1500 mg/kg
Cc1ccc(C(=O)c2ccc(CC(=O)O)n2C)cc1 [Na Tolmetin 2H2 O, 1-methyl-5-p-methylbenzoylpyrrol-2-acetic acid, reference compound]			32,0%	23,0%	0,0%	48,6%	53,2%	0,0%	67,3%	55,1%	0,0%	30,5%	24,0%	0,0%	49,0%	52,0%	0,0%	59,0%	54,2%	0,0%	% incidence 10 (gastric mucosa; 50 mg/kg oral): 7 %/10; Mean No. lesions (gastric mucosa; 50 mg/kg oral): 2; Mean Severity (gastric mucosa; 50 mg/kg oral): 2; % incidence 10 (gastric mucosa; 100 mg/kg oral): 10 %/10; Mean No. lesions (gastric mucosa; 100 mg/kg oral): 2,5; Mean Severity (gastric mucosa; 100 mg/kg oral): 3,5; % incidence 10 (gastric mucosa; 200 mg/kg oral): 10 %/10; Mean No. lesions (gastric mucosa; 200 mg/kg oral): 3; Mean Severity (gastric mucosa; 200 mg/kg oral): 4
CC(=O)Oc1ccccc1C(=O)O [aspirin, reference compound]	29	19																			% Inhibition [1, 7]: 15%; % Inhibition [1, 8]: 60%; % Inhibition ([1]; ADP 7.08 μmol/l, dose 10 /ml (Table I)): 100%
